In patent US20080009418A1, “Selective Inhibitors” (Alchemia LTD., priority 2004, published 2008):

Legend:
Human Melanocortin (MC4) = target: T1, Human Melanocortin (MC4) (Homo sapiens, UniProt P32245); assay: Radioligand binding, human melanocortin MC4 membranes, FlashPlate, [125I]-NDP-αMSH; conditions: compound at 10 μM, [125I]-NDP-αMSH; for A4: inhibition of radioligand binding: FlashPlate
T1 construct: purchased Perkin Elmer Biosignal
In short: (§1)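 Cloned human receptor membranes were coated onto FlashPlate wells and incubated with radioligand and compound (added from a 0.5 mM DMSO daughter plate) for 1 hour at room temperature in the dark. Scintillation counting gave percent inhibition, with DMSO defining total and reference ligand defining non-specific binding.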

Human neurokinin (NK1) = target: T2, Human neurokinin (NK1) (Homo sapiens, UniProt P25103); assay: Radioligand binding, human neurokinin NK1 membranes, filtration, [125I]-Substance P; conditions: compound at 10 μM, [125I]-Substance P; for A8: inhibition of radioligand binding: filtration
T2 construct: purchased Perkin Elmer Biosignal
T2 sequence (P25103 whole entry): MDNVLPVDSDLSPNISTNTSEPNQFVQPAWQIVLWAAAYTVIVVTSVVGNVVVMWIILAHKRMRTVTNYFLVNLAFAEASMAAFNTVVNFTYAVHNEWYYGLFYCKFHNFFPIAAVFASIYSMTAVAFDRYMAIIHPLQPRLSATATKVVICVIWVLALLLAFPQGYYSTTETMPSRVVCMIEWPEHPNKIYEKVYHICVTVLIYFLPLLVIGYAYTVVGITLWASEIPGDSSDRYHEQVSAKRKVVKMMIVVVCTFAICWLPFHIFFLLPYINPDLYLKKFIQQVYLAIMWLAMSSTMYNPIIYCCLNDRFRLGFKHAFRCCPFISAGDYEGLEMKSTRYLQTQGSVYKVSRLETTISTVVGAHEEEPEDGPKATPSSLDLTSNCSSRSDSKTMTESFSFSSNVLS
In short: (§2)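 Percent inhibition of radioligand binding measured on recombinant human membranes: NK1 with [125I]-Substance P, KOP with [3H]-Diprenorphine. Incubation 1 h at room temperature, then harvest onto 0.3% PEI-soaked filters, cold Tris-HCl pH 7.4 washes and scintillation counting; non-specific binding from reference ligand wells.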

Human Melanocortin (MC3) = target: T3, Human Melanocortin (MC3) (Homo sapiens, UniProt P41968); assay: Radioligand binding, human melanocortin MC3 membranes, FlashPlate, [125I]-NDP-αMSH; conditions: compound at 10 μM, [125I]-NDP-αMSH; for A3: inhibition of radioligand binding: FlashPlate
T3 construct: purchased Perkin Elmer Biosignal
T3 sequence (P41968 whole entry): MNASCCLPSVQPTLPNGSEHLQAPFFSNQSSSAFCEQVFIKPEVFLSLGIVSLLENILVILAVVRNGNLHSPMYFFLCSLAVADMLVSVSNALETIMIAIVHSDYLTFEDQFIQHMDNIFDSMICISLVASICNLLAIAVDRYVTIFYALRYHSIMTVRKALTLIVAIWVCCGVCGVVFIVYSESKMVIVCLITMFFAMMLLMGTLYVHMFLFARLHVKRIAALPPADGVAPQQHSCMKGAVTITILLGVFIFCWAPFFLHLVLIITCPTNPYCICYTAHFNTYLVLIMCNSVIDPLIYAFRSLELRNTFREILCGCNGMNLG
In short: as §1

[1] = target: T4, Human neuropeptide Y (NPY-Y1) (Homo sapiens, UniProt P25929); assay: Radioligand binding, human neuropeptide Y NPY-Y1 membranes, FlashPlate, [125I]-PYY; conditions: compound at 10 μM, [125I]-PYY; for A9: inhibition of radioligand binding: FlashPlate
T4 construct: purchased Perkin Elmer Biosignal
T4 sequence (P25929 1-384): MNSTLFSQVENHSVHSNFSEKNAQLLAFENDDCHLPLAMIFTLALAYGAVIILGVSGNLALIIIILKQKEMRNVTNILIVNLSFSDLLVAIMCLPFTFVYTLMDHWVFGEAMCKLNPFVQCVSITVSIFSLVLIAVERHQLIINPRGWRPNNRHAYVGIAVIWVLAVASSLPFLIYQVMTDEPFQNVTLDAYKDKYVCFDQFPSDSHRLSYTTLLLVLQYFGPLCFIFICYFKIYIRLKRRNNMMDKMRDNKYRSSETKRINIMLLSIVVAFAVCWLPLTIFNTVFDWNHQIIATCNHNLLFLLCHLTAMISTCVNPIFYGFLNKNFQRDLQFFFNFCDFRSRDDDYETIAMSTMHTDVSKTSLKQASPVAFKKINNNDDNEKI
In short: as §1

Human δ-opioid (DOP) = target: T5, Human δ-opioid (DOP) (Homo sapiens, UniProt P41143); assay: Radioligand binding, human δ-opioid (DOP) membranes, FlashPlate, [3H]-Bremazocine; conditions: compound at 10 μM, [3H]-Bremazocine; for A1: inhibition of radioligand binding: FlashPlate
T5 construct: purchased Perkin Elmer Biosignal
T5 sequence (P41143 whole entry): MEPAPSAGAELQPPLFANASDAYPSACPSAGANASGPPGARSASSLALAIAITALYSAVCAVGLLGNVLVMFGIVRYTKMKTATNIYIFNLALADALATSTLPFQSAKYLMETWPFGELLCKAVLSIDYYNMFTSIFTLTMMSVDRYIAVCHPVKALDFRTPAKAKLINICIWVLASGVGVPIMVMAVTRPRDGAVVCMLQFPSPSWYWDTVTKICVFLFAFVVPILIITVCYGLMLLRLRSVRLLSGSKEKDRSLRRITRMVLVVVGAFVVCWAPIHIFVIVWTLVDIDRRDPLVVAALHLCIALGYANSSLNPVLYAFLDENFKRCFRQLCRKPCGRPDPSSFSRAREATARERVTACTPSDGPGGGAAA
In short: as §1

Human opioid (ORL1) = target: T6, Human opioid (ORL1) (Homo sapiens, UniProt P41146); assay: Radioligand binding, human opioid ORL1 membranes, FlashPlate, [125I]-Nociceptin; conditions: compound at 10 μM, [125I]-Nociceptin; for A10: inhibition of radioligand binding: FlashPlate
T6 construct: purchased Perkin Elmer Biosignal
T6 sequence (P41146 whole entry): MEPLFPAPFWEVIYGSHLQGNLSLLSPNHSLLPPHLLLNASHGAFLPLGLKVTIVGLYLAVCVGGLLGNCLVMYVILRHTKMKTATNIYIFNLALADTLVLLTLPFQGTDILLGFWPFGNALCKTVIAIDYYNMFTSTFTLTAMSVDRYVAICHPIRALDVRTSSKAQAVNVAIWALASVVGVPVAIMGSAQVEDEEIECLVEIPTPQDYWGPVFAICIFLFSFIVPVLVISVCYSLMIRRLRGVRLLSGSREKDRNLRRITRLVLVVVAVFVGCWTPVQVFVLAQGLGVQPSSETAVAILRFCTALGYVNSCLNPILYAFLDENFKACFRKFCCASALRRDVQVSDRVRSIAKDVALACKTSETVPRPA
In short: as §1

Mouse urotensin (mUR2) = target: T7, Mouse urotensin (mUR2) (Mus musculus, UniProt Q8VIH9); assay: Radioligand binding, mouse urotensin mUR2 membranes, FlashPlate, [125I]-Urotensin II; conditions: compound at 10 μM, [125I]-Urotensin II; for A11: inhibition of radioligand binding: FlashPlate
T7 construct: purchased Perkin Elmer Biosignal
T7 sequence (Q8VIH9 1-385): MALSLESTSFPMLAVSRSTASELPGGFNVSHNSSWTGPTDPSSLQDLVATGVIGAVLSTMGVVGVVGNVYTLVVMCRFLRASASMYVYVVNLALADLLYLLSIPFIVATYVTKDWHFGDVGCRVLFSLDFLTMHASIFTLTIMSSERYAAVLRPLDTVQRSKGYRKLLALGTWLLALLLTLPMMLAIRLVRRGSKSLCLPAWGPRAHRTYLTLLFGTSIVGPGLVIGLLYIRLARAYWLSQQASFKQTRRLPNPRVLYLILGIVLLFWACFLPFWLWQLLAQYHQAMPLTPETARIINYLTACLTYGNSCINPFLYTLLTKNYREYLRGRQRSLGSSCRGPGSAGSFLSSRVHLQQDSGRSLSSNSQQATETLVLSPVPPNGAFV
In short: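 Cloned mouse urotensin (mUR2) receptor membranes from Perkin Elmer Biosignal were immobilized in FlashPlate microplates using a proprietary coating. Each well got 19.5 μl buffer, then 0.5 μl of DMSO, reference ligand, or compound. Adding 5 μl of [125I]-Urotensin II, diluted to 5× final concentration in binding buffer, started binding. Plates were sealed with TopSeal-A and incubated 1 hour at room temperature in the dark. Wells were counted for 30 seconds each on a TopCount after a 60-second delay, and percentage inhibition was calculated.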

[2] = target: T8, Human melanin-concentrating hormone (MCH1) (Homo sapiens, UniProt Q99705); assay: Radioligand binding, human melanin-concentrating hormone MCH1 membranes, FlashPlate, [125I]-S36057; conditions: compound at 10 μM; for A6: inhibition of radioligand binding: [125I]-S36057, FlashPlate
T8 construct: purchased Perkin Elmer Biosignal
T8 sequence (Q99705 whole entry): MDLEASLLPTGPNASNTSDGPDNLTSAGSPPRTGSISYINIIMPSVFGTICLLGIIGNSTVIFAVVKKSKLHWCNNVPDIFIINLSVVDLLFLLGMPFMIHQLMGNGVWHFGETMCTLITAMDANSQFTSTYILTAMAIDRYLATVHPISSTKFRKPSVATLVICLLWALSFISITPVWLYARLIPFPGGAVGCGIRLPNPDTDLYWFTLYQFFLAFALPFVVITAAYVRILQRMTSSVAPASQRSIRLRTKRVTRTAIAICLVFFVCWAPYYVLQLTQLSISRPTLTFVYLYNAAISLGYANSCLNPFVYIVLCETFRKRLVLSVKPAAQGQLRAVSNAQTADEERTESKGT
In short: as §1

Human μ-opioid (MOP) = target: T9, Human μ-opioid (MOP) (Homo sapiens, UniProt P35372); assay: Radioligand binding, human μ-opioid (MOP) membranes, FlashPlate, [3H]-Naloxone; conditions: compound at 10 μM, [3H]-Naloxone; for A7: inhibition of radioligand binding: FlashPlate
T9 construct: purchased Perkin Elmer Biosignal
T9 sequence (P35372 whole entry): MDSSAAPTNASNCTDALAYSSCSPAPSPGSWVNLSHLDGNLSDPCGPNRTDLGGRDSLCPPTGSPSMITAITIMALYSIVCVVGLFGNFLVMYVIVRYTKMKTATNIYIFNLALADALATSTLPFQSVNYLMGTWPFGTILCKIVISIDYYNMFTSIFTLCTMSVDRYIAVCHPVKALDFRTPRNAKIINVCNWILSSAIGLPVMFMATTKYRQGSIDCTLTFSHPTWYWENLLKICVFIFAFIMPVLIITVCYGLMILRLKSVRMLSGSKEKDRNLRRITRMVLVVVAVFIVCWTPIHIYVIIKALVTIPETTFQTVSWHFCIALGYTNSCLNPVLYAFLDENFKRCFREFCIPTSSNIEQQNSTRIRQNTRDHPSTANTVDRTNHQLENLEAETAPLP
In short: as §1

Human κ-Opioid (KOP) = target: T10, Human κ-Opioid (KOP) (Homo sapiens, UniProt P41145); assay: Radioligand binding, human κ-opioid (KOP) membranes, filtration, [3H]-Diprenorphine; conditions: compound at 10 μM, [3H]-Diprenorphine; for A2: inhibition of radioligand binding: filtration
T10 construct: purchased Perkin Elmer Biosignal
T10 sequence (P41145 whole entry): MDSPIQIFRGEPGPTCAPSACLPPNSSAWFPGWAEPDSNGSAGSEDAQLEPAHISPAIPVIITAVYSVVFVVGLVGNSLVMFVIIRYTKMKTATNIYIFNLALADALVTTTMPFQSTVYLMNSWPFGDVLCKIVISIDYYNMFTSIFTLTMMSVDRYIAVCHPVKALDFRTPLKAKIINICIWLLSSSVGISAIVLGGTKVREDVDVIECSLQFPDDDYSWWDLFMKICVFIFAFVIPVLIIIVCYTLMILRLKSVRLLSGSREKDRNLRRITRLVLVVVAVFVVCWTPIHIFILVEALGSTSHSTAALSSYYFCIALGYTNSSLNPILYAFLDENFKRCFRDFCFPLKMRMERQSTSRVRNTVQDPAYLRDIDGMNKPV
In short: as §2

Human melanocortin (MC5) = target: T11, Human melanocortin (MC5) (Homo sapiens, UniProt P33032); assay: Radioligand binding, human melanocortin MC5 membranes, FlashPlate, [125I]-NDP-αMSH; conditions: compound at 10 μM, [125I]-NDP-αMSH; for A5: inhibition of radioligand binding: FlashPlate
T11 construct: purchased Perkin Elmer Biosignal
T11 sequence (P33032 whole entry): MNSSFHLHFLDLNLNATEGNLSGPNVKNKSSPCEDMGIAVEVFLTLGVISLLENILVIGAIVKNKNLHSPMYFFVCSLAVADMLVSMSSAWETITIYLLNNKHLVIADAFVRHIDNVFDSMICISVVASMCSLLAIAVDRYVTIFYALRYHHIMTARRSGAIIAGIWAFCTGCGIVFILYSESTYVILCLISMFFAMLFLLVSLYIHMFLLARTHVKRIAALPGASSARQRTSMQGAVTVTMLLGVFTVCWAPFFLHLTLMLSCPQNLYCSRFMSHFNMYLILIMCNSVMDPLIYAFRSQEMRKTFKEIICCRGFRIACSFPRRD
In short: as §1

T1 sequence (P32245 whole entry): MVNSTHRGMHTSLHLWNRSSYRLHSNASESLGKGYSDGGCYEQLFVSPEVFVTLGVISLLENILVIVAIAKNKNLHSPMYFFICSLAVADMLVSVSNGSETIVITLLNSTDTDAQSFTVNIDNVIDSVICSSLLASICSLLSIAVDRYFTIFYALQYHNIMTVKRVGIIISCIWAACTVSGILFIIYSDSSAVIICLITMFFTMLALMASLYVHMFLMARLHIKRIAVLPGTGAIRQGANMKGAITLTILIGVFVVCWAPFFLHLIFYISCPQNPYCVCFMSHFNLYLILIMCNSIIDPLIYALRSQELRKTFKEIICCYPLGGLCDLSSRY

| SMILES | A4: inhibition of radioligand binding (Human Melanocortin (MC4)) | A8: inhibition of radioligand binding (Human neurokinin (NK1)) | A3: inhibition of radioligand binding (Human Melanocortin (MC3)) | A9: inhibition of radioligand binding [1] | A1: inhibition of radioligand binding (Human δ-opioid (DOP)) | A10: inhibition of radioligand binding (Human opioid (ORL1)) | A11: inhibition of radioligand binding (Mouse urotensin (mUR2)) | A6: inhibition of radioligand binding [2] | A7: inhibition of radioligand binding (Human μ-opioid (MOP)) | A2: inhibition of radioligand binding (Human κ-Opioid (KOP)) | A5: inhibition of radioligand binding (Human melanocortin (MC5)) | also measured |
| --- | --- | --- | --- | --- | --- | --- | --- | --- | --- | --- | --- | --- |
| COCC1OC(OCc2ccc3ccccc3c2)C(NC(=O)CN)C(OCc2ccc(Cl)cc2)C1O (stereo not drawn) [compound 235] | − (“−” indicates less than 50% inhibition at 10 μM) | + (“+” indicates greater than 50% inhibition at 10 μM) | − (“−” indicates less than 50% inhibition at 10 μM) | − (“−” indicates less than 50% inhibition at 10 μM) | + (“+” indicates greater than 50% inhibition at 10 μM) | − (“−” indicates less than 50% inhibition at 10 μM) | − (“−” indicates less than 50% inhibition at 10 μM) | − (“−” indicates less than 50% inhibition at 10 μM) | − (“−” indicates less than 50% inhibition at 10 μM) | − (“−” indicates less than 50% inhibition at 10 μM) | − (“−” indicates less than 50% inhibition at 10 μM) |  |
| CSC1O[C@H](COCc2ccc3ccccc3c2)[C@@H](O)[C@@H](OCc2ccc(-c3ccccc3)cc2)[C@H]1NC(=O)CCN (stereo partly drawn) [compound 297] |  |  |  |  |  |  |  |  |  |  |  | A4: inhibition of radioligand binding, human melanocortin (MC4) (Human Melanocortin (MC4)): − (“−” indicates less than 50% inhibition at 10 μM); A8: inhibition of radioligand binding, human neurokinin (NK1) (Human neurokinin (NK1)): + (“+” indicates greater than 50% inhibition at 10 μM); A3: inhibition of radioligand binding, human melanocortin (MC3) (Human Melanocortin (MC3)): − (“−” indicates less than 50% inhibition at 10 μM); A9: inhibition of radioligand binding, human neuropeptide Y (NPY-Y1) [1]: − (“−” indicates less than 50% inhibition at 10 μM); A1: inhibition of radioligand binding, human δ-opioid (DOP) (Human δ-opioid (DOP)): − (“−” indicates less than 50% inhibition at 10 μM); A10: inhibition of radioligand binding, human opioid (ORL1) (Human opioid (ORL1)): − (“−” indicates less than 50% inhibition at 10 μM); A11: inhibition of radioligand binding, mouse urotensin (mUR2) (Mouse urotensin (mUR2)): − (“−” indicates less than 50% inhibition at 10 μM); A6: inhibition of radioligand binding, human melanin-concentrating hormone (MCH1) ([2]; [125I]-S36057): − (“−” indicates less than 50% inhibition at 10 μM); A7: inhibition of radioligand binding, human μ-opioid (MOP) (Human μ-opioid (MOP)): − (“−” indicates less than 50% inhibition at 10 μM); A2: inhibition of radioligand binding, human κ-opioid (KOP) (Human κ-Opioid (KOP)): − (“−” indicates less than 50% inhibition at 10 μM); A5: inhibition of radioligand binding, human melanocortin (MC5) (Human melanocortin (MC5)): − (“−” indicates less than 50% inhibition at 10 μM) |
| CSC1OC(COCc2ccc3ccccc3c2)C(O)C(OCc2ccccc2)C1NC(=O)CCCN (stereo not drawn) [compound 263] | − (“−” indicates less than 50% inhibition at 10 μM) | + (“+” indicates greater than 50% inhibition at 10 μM) | − (“−” indicates less than 50% inhibition at 10 μM) | − (“−” indicates less than 50% inhibition at 10 μM) | − (“−” indicates less than 50% inhibition at 10 μM) | − (“−” indicates less than 50% inhibition at 10 μM) | − (“−” indicates less than 50% inhibition at 10 μM) | − (“−” indicates less than 50% inhibition at 10 μM) | − (“−” indicates less than 50% inhibition at 10 μM) | − (“−” indicates less than 50% inhibition at 10 μM) | − (“−” indicates less than 50% inhibition at 10 μM) |  |
| COCC1OC(OCc2ccc3ccccc3c2)C(NC(=O)CCNC(=N)N)C(OCc2ccc(Cl)cc2)C1O (stereo not drawn) [compound 238] | + (“+” indicates greater than 50% inhibition at 10 μM) | + (“+” indicates greater than 50% inhibition at 10 μM) | + (“+” indicates greater than 50% inhibition at 10 μM) | − (“−” indicates less than 50% inhibition at 10 μM) | + (“+” indicates greater than 50% inhibition at 10 μM) | + (“+” indicates greater than 50% inhibition at 10 μM) | − (“−” indicates less than 50% inhibition at 10 μM) | + (“+” indicates greater than 50% inhibition at 10 μM) | − (“−” indicates less than 50% inhibition at 10 μM) | − (“−” indicates less than 50% inhibition at 10 μM) | + (“+” indicates greater than 50% inhibition at 10 μM) |  |
| COCC1OC(OCc2ccc3ccccc3c2)C(NC(=O)CCNC(=N)N)C(OCc2ccc3ccccc3c2)C1O (stereo not drawn) [compound 249] | + (“+” indicates greater than 50% inhibition at 10 μM) | + (“+” indicates greater than 50% inhibition at 10 μM) | + (“+” indicates greater than 50% inhibition at 10 μM) | − (“−” indicates less than 50% inhibition at 10 μM) | − (“−” indicates less than 50% inhibition at 10 μM) | − (“−” indicates less than 50% inhibition at 10 μM) | − (“−” indicates less than 50% inhibition at 10 μM) | + (“+” indicates greater than 50% inhibition at 10 μM) | + (“+” indicates greater than 50% inhibition at 10 μM) | − (“−” indicates less than 50% inhibition at 10 μM) | + (“+” indicates greater than 50% inhibition at 10 μM) |  |
| CO[C@H]1[C@H](O)[C@@H](COCc2ccc(Cl)cc2)OC(OCCc2ccccc2)[C@@H]1NC(=O)CCCN (stereo partly drawn) [compound 121] |  |  |  |  |  |  |  |  |  |  |  | A4 radioligand binding, percentage inhibition (Human Melanocortin (MC4)): − (“−” indicates less than 50% inhibition at 10 μM); A8 radioligand binding, percentage inhibition (Human neurokinin (NK1)): + (“+” indicates greater than 50% inhibition at 10 μM); A3 radioligand binding, percentage inhibition (Human Melanocortin (MC3)): − (“−” indicates less than 50% inhibition at 10 μM); A9 radioligand binding, percentage inhibition [1]: − (“−” indicates less than 50% inhibition at 10 μM); A1 radioligand binding, percentage inhibition (Human δ-opioid (DOP)): − (“−” indicates less than 50% inhibition at 10 μM); A10 radioligand binding, percentage inhibition (Human opioid (ORL1)): − (“−” indicates less than 50% inhibition at 10 μM); A11 radioligand binding, percentage inhibition (Mouse urotensin (mUR2)): − (“−” indicates less than 50% inhibition at 10 μM); A6 radioligand binding, percentage inhibition ([2]; [125I]-S36057): − (“−” indicates less than 50% inhibition at 10 μM); A7 radioligand binding, percentage inhibition (Human μ-opioid (MOP)): − (“−” indicates less than 50% inhibition at 10 μM); A2 radioligand binding, percentage inhibition (Human κ-Opioid (KOP)): − (“−” indicates less than 50% inhibition at 10 μM); A5 radioligand binding, percentage inhibition (Human melanocortin (MC5)): + (“+” indicates greater than 50% inhibition at 10 μM) |
